Reference: the supplement of paper PMC10307832

Legend:
Assay in all cases: relative viability (nuclei count vs DMSO), 5 days (fraction); higher = more cells survive
[1] = compound: C[C@@]1(C(=O)Nc2ccc(F)nc2)CCCN1c1nc(Nc2cc(C3CC3)n[nH]2)c2cccn2n1 + NC(=O)Nc1cc(-c2cccc(F)c2)sc1C(=O)N[C@H]1CCCNC1 [AZD7762] (partner 0.2 µM)
Procedure, shortened: (§1)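 A single step with final 0.05% Triton X-100, 1% formaldehyde and 1 ug/ml Hoechst fixed the cells and stained nuclei 5 days after treatment. Lung cancer cell lines in 1536-well plates had been treated by pin tool the day after seeding with one drug alone or a fixed anchor-drug dose plus five library-drug doses (not always all listed) in √10 steps, and nuclei were counted on 4× images. Relative viability is the ratio of nuclei in treated wells to nuclei in vehicle wells, taken as the median of duplicate plates.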

[2] = compound: CC1(C)CNc2cc(NC(=O)c3cccnc3NCc3ccncc3)ccc21 [Motesanib] + CC(C)C[C@H](NC(=O)[C@H](Cc1ccccc1)NC(=O)c1cnccn1)B(O)O [Bortezomib] (partner 0.002 µM)
Procedure, shortened: as §1

[3] = compound: C[C@@]1(C(=O)Nc2ccc(F)nc2)CCCN1c1nc(Nc2cc(C3CC3)n[nH]2)c2cccn2n1 + N=C(N)NC(=N)NCCc1ccccc1 [Phenformin] (partner 250 µM)
Procedure, shortened: as §1

[4] = compound: CC1(C)CNc2cc(NC(=O)c3cccnc3NCc3ccncc3)ccc21 [Motesanib] + O=C(CCCCCCC(=O)Nc1ccccc1)NO [Vorinostat] (partner 1 µM)
Procedure, shortened: as §1

Cell Line	relative viability ([1]; first compound 0.04 µM)	relative viability ([1]; first compound 0.1265 µM)	relative viability ([1]; first compound 0.4 µM)	relative viability ([1]; first compound 1.265 µM)	relative viability ([2]; first compound 0.01 µM)	relative viability ([2]; first compound 0.03162 µM)	relative viability ([2]; first compound 0.1 µM)	relative viability ([2]; first compound 0.3162 µM)	relative viability ([2]; first compound 1 µM)	relative viability ([3]; first compound 0.04 µM)	relative viability ([3]; first compound 0.1265 µM)	relative viability ([3]; first compound 0.4 µM)	relative viability ([3]; first compound 1.265 µM)	relative viability ([4]; first compound 0.01 µM)	relative viability ([4]; first compound 0.03162 µM)	relative viability ([4]; first compound 0.1 µM)	relative viability ([4]; first compound 0.3162 µM)	relative viability ([4]; first compound 1 µM)
NCI-H2126	0.993	0.716	0.569	0.648	1.07	1.17	1.11	1.17	1.12	0.459	0.293	0.314	0.293	0.858	0.774	0.643	0.926	0.813
HOP-62	0.812	0.541	0.427	0.547	0.862	0.791	0.735	0.802	0.907	0.672	0.598	0.635	0.762	0.668	0.677	0.599	0.972	0.799
CAL-12T	0.659	0.765	0.78	0.677	–	–	0.906	1.16	0.926	0.575	0.507	0.464	0.207	0.797	0.847	0.692	0.795	0.86
NCI-H1755	0.481	0.424	0.378	0.406	0.927	0.957	1.06	0.988	1.02	0.638	0.55	0.53	0.547	0.672	0.759	0.808	0.945	0.747
